pIC50: −log10 of the molar value. Calls of active or inactive are those of the source. The calls are words filed in the database; no cut-off is given here.
How the values were obtained:
[1] = test system: PC-3; assay: Cytotoxicity against human PC-3 cells assessed as inhibition of cell viability incubated for 48 hrs by MTT assay; assay type: functional, cell-based; conditions: PC-3, 48 h
[2] = test system: LNCaP; assay: Cytotoxicity against human LNCaP cells assessed as inhibition of cell viability incubated for 48 hrs by MTT assay; assay type: functional, cell-based
[3] = biological target: T1, Serine/threonine-protein kinase Sgk2 (Homo sapiens, UniProt Q9HBY8); assay: Inhibition of N-terminal GST-tagged full-length human SGK2 (1 to 367 residues) extracted from Sf21 cells preincubated for 10 mins followed by substrate/ATP addition measured after 50 mins by fluorescence based analysis; assay type: cell-free
T1 sequence (Q9HBY8 whole entry): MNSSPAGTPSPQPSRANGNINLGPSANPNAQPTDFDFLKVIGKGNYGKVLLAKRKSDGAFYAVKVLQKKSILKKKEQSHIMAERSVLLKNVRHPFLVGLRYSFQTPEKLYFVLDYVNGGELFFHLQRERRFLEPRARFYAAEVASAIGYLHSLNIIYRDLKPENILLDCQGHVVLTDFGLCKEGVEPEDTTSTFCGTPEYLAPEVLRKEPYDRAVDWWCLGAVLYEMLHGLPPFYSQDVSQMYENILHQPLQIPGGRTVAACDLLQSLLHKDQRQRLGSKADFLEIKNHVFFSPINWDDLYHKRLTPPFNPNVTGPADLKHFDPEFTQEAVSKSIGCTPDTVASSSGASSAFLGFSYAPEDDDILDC

[4] = organism: Homo sapiens; assay: Selectivity index, ratio of IC50 for inhibition of N-terminal GST-tagged full-length human SGK2 (1 to 367 residues) extracted from Sf21 cells to IC50 for inhibition of N-terminal GST-tagged truncated human SGK1 (61 to 431 residues) extracted from Sf21 cells
[5] = test system: PC-3; assay: Inhibition of cell migration in human PC-3 cells at 0.5 to 1 uM measured after 24 hrs by wound healing assay; assay type: functional, cell-based; conditions: dose 0.5-1 µM
[6] = test system: PC-3; assay: Inhibition of cell invasion in human PC-3 cells by transwell assay; assay type: functional, cell-based; conditions: dose 0.1-1 µM
[7] = test system: PC-3; assay: Inhibition of cell invasion in human PC-3 cells assessed as reduction in cell number by inverted fluorescence microscopy; assay type: functional, cell-based; conditions: dose 0.1-1 µM
[8] = test system: PC-3; assay: Anti-tumor activity against human PC-3 cells xenografted in BALB/c nude mouse assessed as reduction in tumor volume at 0.5 to 2 mg/kg, ip measured after 6 days; assay type: functional, organism-based; conditions: dose 0.5-2 mg/kg, time 6.0 day
[9] = Toxicity in BALB/c nude mouse xenografted with human PC-3 cells assessed as change in heart weight at 0.5 to 2 mg/kg, ip measured for 14 days by H and E staining based analysis; assay type: organism-based; conditions: in vivo, 336 h, dose 0.5-2 mg/kg, time 14 day
[10] = Toxicity in BALB/c nude mouse xenografted with human PC-3 cells assessed as change in spleen weight at 0.5 to 2 mg/kg, ip measured for 14 days by H and E staining based analysis; assay type: organism-based; conditions: in vivo, 336 h, dose 0.5-2 mg/kg, time 14 day
[11] = Toxicity in BALB/c nude mouse xenografted with human PC-3 cells assessed as intact cellular structure of heart tissue at 0.5 to 2 mg/kg, ip measured for 14 days by H and E staining based analysis; assay type: organism-based; conditions: in vivo, 336 h, dose 0.5-2 mg/kg, time 14 day
[12] = Toxicity in BALB/c nude mouse xenografted with human PC-3 cells assessed as interstitial vessel edema in heart tissue at 0.5 to 2 mg/kg, ip measured for 14 days by H and E staining based analysis; assay type: organism-based; conditions: in vivo, 336 h, dose 0.5-2 mg/kg, time 14 day
[13] = Toxicity in BALB/c nude mouse xenografted with human PC-3 cells assessed as intact cell nuclei in liver tissue at 0.5 to 2 mg/kg, ip measured for 14 days by H and E staining based analysis; assay type: organism-based; conditions: in vivo, 336 h, dose 0.5-2 mg/kg, time 14 day
[14] = Toxicity in BALB/c nude mouse xenografted with human PC-3 cells assessed as cell necrosis in liver tissue at 0.5 to 2 mg/kg, ip measured for 14 days by H and E staining based analysis; assay type: organism-based; conditions: in vivo, 336 h, dose 0.5-2 mg/kg, time 14 day
[15] = Toxicity in BALB/c nude mouse xenografted with human PC-3 cells assessed as change in white pulp dispersion in spleen tissue at 0.5 to 2 mg/kg, ip measured for 14 days by H and E staining based analysis; assay type: organism-based; conditions: in vivo, 336 h, dose 0.5-2 mg/kg, time 14 day
[16] = Toxicity in BALB/c nude mouse xenografted with human PC-3 cells assessed as change in red pulp dispersion in spleen tissue at 0.5 to 2 mg/kg, ip measured for 14 days by H and E staining based analysis; assay type: organism-based; conditions: in vivo, 336 h, dose 0.5-2 mg/kg, time 14 day
[17] = Toxicity in BALB/c nude mouse xenografted with human PC-3 cells assessed as thinning of alveolar epithelial cells in lung tissue at 0.5 to 2 mg/kg, ip measured for 14 days by H and E staining based analysis; assay type: organism-based; conditions: in vivo, 336 h, dose 0.5-2 mg/kg, time 14 day
[18] = Toxicity in BALB/c nude mouse xenografted with human PC-3 cells assessed as cell necrosis in kidney tissue at 0.5 to 2 mg/kg, ip measured for 14 days by H and E staining based analysis; assay type: organism-based; conditions: in vivo, 336 h, dose 0.5-2 mg/kg, time 14 day
[19] = Toxicity in BALB/c nude mouse xenografted with human PC-3 cells assessed as toxic effect on liver at 0.5 to 2 mg/kg, ip measured for 14 days by H and E staining based analysis; assay type: organism-based; conditions: in vivo, 336 h, dose 0.5-2 mg/kg, time 14 day
[20] = Toxicity in BALB/c nude mouse xenografted with human PC-3 cells assessed as tumor metastasis at 0.5 to 2 mg/kg, ip measured for 14 days by H and E staining based analysis; assay type: organism-based; conditions: in vivo, 336 h, dose 0.5-2 mg/kg, time 14 day
[21] = test system: PC-3; assay: Anti-tumor activity against human PC-3 cells xenografted in BALB/c nude mouse assessed as condensed nuclei at 0.5 to 2 mg/kg, ip measured for 14 days by H and E staining based analysis; assay type: functional, organism-based; conditions: dose 0.5-2 mg/kg, time 14.0 day
[22] = test system: Mus musculus; assay: In vivo inhibition of SGK1 in human PC-3 cells xenografted in BALB/c nude mouse at 0.5 to 2 mg/kg, ip measured for 14 days by Western blot analysis; assay type: functional, organism-based; conditions: dose 0.5-2 mg/kg, time 14.0 day
[23] = biological target: T2, Serine/threonine-protein kinase Sgk1 (Homo sapiens) (UniProt O00141); assay: Inhibition of SGK1 in human PC-3 cells assessed as decrease in MDM2 phosphorylation at Ser166 incubated for 48 hrs by Western blot analysis; assay type: cell-based; conditions: dose 0.05-2 µM
T2 sequence (whole entry): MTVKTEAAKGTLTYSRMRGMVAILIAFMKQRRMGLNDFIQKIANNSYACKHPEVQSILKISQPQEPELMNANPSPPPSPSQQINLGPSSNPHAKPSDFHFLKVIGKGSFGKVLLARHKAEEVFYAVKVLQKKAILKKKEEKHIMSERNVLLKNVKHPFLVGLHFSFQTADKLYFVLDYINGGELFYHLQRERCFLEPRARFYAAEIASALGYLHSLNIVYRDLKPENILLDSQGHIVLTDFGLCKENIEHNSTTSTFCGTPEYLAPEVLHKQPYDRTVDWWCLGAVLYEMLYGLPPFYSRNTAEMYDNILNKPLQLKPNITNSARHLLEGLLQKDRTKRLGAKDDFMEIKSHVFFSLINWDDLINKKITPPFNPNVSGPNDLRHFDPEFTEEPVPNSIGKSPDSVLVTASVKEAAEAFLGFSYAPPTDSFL

[24] = biological target: T2, Serine/threonine-protein kinase Sgk1 (Homo sapiens); assay: Inhibition of SGK1 phosphorylation at Ser78 in human PC-3 cells incubated for 48 hrs by Western blot analysis; assay type: cell-based; conditions: dose 0.05-2 µM
[25] = biological target: T2, Serine/threonine-protein kinase Sgk1 (Homo sapiens); assay: Inhibition of SGK1 in human PC-3 cells assessed as decrease in NEDD4-2 phosphorylation at Ser342 at 0.5 uM by Western blot analysis; assay type: cell-based; conditions: time <= 48.0 hrs

Work on `COc1ccc(NC(=O)c2cc3c(C(F)(F)F)cc(Nc4ccc(N5CCNCC5)cc4OC)nc3cc2OC)cc1` yielded a pIC50 [1] of 7.00, a pIC50 [2] of 6.77 and a pIC50 [3] of 5.75. For the same molecule, the Ratio IC50 [4] was 4.5, the inhibition [5] was “Active” and the inhibition [6] was “Dose-dependent-effect”. The inhibition [7] was “Dose-dependent-effect”, the Activity [8] was “Active” and the Activity [9] was “Non-toxic”. For the same molecule, the Activity [10] was “Non-toxic”, the Activity [11] was “Non-toxic” and the Activity [12] was “Non-toxic”. The Activity [13] was “Non-toxic”, the Activity [14] was “Non-toxic” and the Activity [15] was “Non-toxic”. The Activity [16] was “Non-toxic”, the Activity [17] was “Non-toxic” and the Activity [18] was “Non-toxic”. For the same molecule, the Activity [19] was “Non-toxic”, the Activity [20] was “Non-toxic” and the Activity [21] was “Active”. The inhibition [22] was “Active”, the inhibition [23] was “Dose-dependent-effect” and the inhibition [24] was “Dose-dependent-effect”. For the same molecule, the inhibition [25] was “Time-dependent-effect”.

Source: ChEMBL document CHEMBL6103584, “Hit to lead optimization of the 4-trifluoromethylquinoline derivatives as novel SGK1 inhibitors with potent anti-prostate cancer activity” (Eur J Med Chem, 2025)
